Results from patent US10206394B2, “Herbicidal compounds” (Syngenta Participations AG, priority 2014, dated 2019).
Read-outs that look alike come from different tables or passages of the source.

How the values were obtained:
Assay in all cases: Glasshouse assay for herbicidal activity (pre- and post-emergence), percentage phytotoxicity
Format in all cases: in vivo
[1] = tested on: Alopecurus myosuroides (ALOMY); conditions: Alopecurus myosuroides
Method in brief: (§1)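 Damage was rated visually as percent phytotoxicity, 100% meaning total kill, 20 days after pre-emergence application (made one day post-sowing) or 15 days after post-emergence application (made about 12 days post-sowing). Plants were grown under 16 h light, 65% humidity, warm species 24/18° C, cool 20/16° C.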

[2] = tested on: Lolium perenne (LOLPE); conditions: Lolium perenne
Method in brief: as §1

[3] = tested on: Avena fatua (AVEFA); conditions: Avena fatua
Method in brief: as §1

[4] = tested on: Echinochloa crus-galli (ECHCG); conditions: Echinochloa crus-galli
Method in brief: as §1

[5] = post-emergence, 360 h, Rate 250 g/ha, post-emergence, visual assessment 15 DAA, 100%=total damage, 0%=no damage, read-out: Post-emergence herbicidal activity (percentage phytotoxicity) ALOMY POST
[6] = pre-emergence, 480 h, Rate 250 g/ha, pre-emergence, visual assessment 20 DAA, 100%=total damage, 0%=no damage, read-out: Pre-emergence herbicidal activity (percentage phytotoxicity) ALOMY PRE
[7] = post-emergence, 360 h, Rate 250 g/ha, post-emergence, visual assessment 15 DAA, 100%=total damage, 0%=no damage, read-out: Post-emergence herbicidal activity (percentage phytotoxicity) LOLPE POST
[8] = pre-emergence, 480 h, Rate 250 g/ha, pre-emergence, visual assessment 20 DAA, 100%=total damage, 0%=no damage, read-out: Pre-emergence herbicidal activity (percentage phytotoxicity) LOLPE PRE
[9] = post-emergence, 360 h, Rate 250 g/ha, post-emergence, visual assessment 15 DAA, 100%=total damage, 0%=no damage, read-out: Post-emergence herbicidal activity (percentage phytotoxicity) AVEFA POST
[10] = pre-emergence, 480 h, Rate 250 g/ha, pre-emergence, visual assessment 20 DAA, 100%=total damage, 0%=no damage, read-out: Pre-emergence herbicidal activity (percentage phytotoxicity) AVEFA PRE
[11] = post-emergence, 360 h, Rate 250 g/ha, post-emergence, visual assessment 15 DAA, 100%=total damage, 0%=no damage, read-out: Post-emergence herbicidal activity (percentage phytotoxicity) ECHCG POST
[12] = pre-emergence, 480 h, Rate 250 g/ha, pre-emergence, visual assessment 20 DAA, 100%=total damage, 0%=no damage, read-out: Pre-emergence herbicidal activity (percentage phytotoxicity) ECHCG PRE
[13] = post-emergence, 360 h, POST-emergence, rate 250 g/ha, visual score 15 DAA (100%=total damage, 0%=no damage), read-out: Post-emergence herbicidal activity (percentage phytotoxicity) ALOMY POST
[14] = pre-emergence, 480 h, PRE-emergence, rate 250 g/ha, visual score 20 DAA (100%=total damage, 0%=no damage), read-out: Pre-emergence herbicidal activity (percentage phytotoxicity) ALOMY PRE
[15] = post-emergence, 360 h, POST-emergence, rate 250 g/ha, visual score 15 DAA (100%=total damage, 0%=no damage), read-out: Post-emergence herbicidal activity (percentage phytotoxicity) LOLPE POST
[16] = pre-emergence, 480 h, PRE-emergence, rate 250 g/ha, visual score 20 DAA (100%=total damage, 0%=no damage), read-out: Pre-emergence herbicidal activity (percentage phytotoxicity) LOLPE PRE
[17] = post-emergence, 360 h, POST-emergence, rate 250 g/ha, visual score 15 DAA (100%=total damage, 0%=no damage), read-out: Post-emergence herbicidal activity (percentage phytotoxicity) AVEFA POST
[18] = pre-emergence, 480 h, PRE-emergence, rate 250 g/ha, visual score 20 DAA (100%=total damage, 0%=no damage), read-out: Pre-emergence herbicidal activity (percentage phytotoxicity) AVEFA PRE
[19] = post-emergence, 360 h, POST-emergence, rate 250 g/ha, visual score 15 DAA (100%=total damage, 0%=no damage), read-out: Post-emergence herbicidal activity (percentage phytotoxicity) ECHCG POST
[20] = pre-emergence, 480 h, PRE-emergence, rate 250 g/ha, visual score 20 DAA (100%=total damage, 0%=no damage), read-out: Pre-emergence herbicidal activity (percentage phytotoxicity) ECHCG PRE
[21] = post-emergence, 360 h, Rate 250 g/ha, post-emergence, assessed visually 15 DAA, 100%=total damage, 0%=no damage, read-out: Post-emergence herbicidal activity (percentage phytotoxicity) ALOMY POST
[22] = pre-emergence, 480 h, Rate 250 g/ha, pre-emergence, assessed visually 20 DAA, 100%=total damage, 0%=no damage, read-out: Pre-emergence herbicidal activity (percentage phytotoxicity) ALOMY PRE
[23] = post-emergence, 360 h, Rate 250 g/ha, post-emergence, assessed visually 15 DAA, 100%=total damage, 0%=no damage, read-out: Post-emergence herbicidal activity (percentage phytotoxicity) LOLPE POST
[24] = pre-emergence, 480 h, Rate 250 g/ha, pre-emergence, assessed visually 20 DAA, 100%=total damage, 0%=no damage, read-out: Pre-emergence herbicidal activity (percentage phytotoxicity) LOLPE PRE
[25] = post-emergence, 360 h, Rate 250 g/ha, post-emergence, assessed visually 15 DAA, 100%=total damage, 0%=no damage, read-out: Post-emergence herbicidal activity (percentage phytotoxicity) AVEFA POST
[26] = pre-emergence, 480 h, Rate 250 g/ha, pre-emergence, assessed visually 20 DAA, 100%=total damage, 0%=no damage, read-out: Pre-emergence herbicidal activity (percentage phytotoxicity) AVEFA PRE
[27] = post-emergence, 360 h, Rate 250 g/ha, post-emergence, assessed visually 15 DAA, 100%=total damage, 0%=no damage, read-out: Post-emergence herbicidal activity (percentage phytotoxicity) ECHCG POST
[28] = pre-emergence, 480 h, Rate 250 g/ha, pre-emergence, assessed visually 20 DAA, 100%=total damage, 0%=no damage, read-out: Pre-emergence herbicidal activity (percentage phytotoxicity) ECHCG PRE

Row | Compound | pest or weed control at 250 g/ha [1, 13] [%] | pest or weed control at 250 g/ha [1, 14] [%] | pest or weed control at 250 g/ha [2, 15] [%] | pest or weed control at 250 g/ha [2, 16] [%] | pest or weed control at 250 g/ha [3, 17] [%] | pest or weed control at 250 g/ha [3, 18] [%] | pest or weed control at 250 g/ha [4, 19] [%] | pest or weed control at 250 g/ha [4, 20] [%] | also measured
1 | CCN(C)C(=O)CC1CC(=O)C(c2c(C)cc(-c3ccc(Cl)cn3)cc2C)C1=O (stereo not drawn) [Compound B367] | – | – | – | – | – | – | – | – | pest or weed control at 250 g/ha [1, 5]: 90%; pest or weed control at 250 g/ha [1, 6]: 90%; pest or weed control at 250 g/ha [2, 7]: 100%; pest or weed control at 250 g/ha [2, 8]: 100%; pest or weed control at 250 g/ha [3, 9]: 100%; pest or weed control at 250 g/ha [3, 10]: 100%; pest or weed control at 250 g/ha [4, 11]: 100%; pest or weed control at 250 g/ha [4, 12]: 100%
2 | C=CCNC(=O)CC1CC(=O)C(c2c(C)cc(-n3cc(Cl)cn3)cc2CC)C1=O (stereo not drawn) [Compound B236] | 100 | 90 | 100 | 90 | 100 | 90 | 100 | 90 | –
3 | Cc1ccc(CNC(=O)CC2CC(=O)C(c3c(C)cc(-c4ncc(Cl)cn4)cc3C)C2=O)cc1 (stereo not drawn) [Compound B355] | – | – | – | – | – | – | – | – | pest or weed control at 250 g/ha [1, 5]: 80%; pest or weed control at 250 g/ha [1, 6]: 50%; pest or weed control at 250 g/ha [2, 7]: 100%; pest or weed control at 250 g/ha [2, 8]: 70%; pest or weed control at 250 g/ha [3, 9]: 90%; pest or weed control at 250 g/ha [3, 10]: 70%; pest or weed control at 250 g/ha [4, 11]: 100%; pest or weed control at 250 g/ha [4, 12]: 90%
4 | Cc1cc(-c2ncc(Cl)cc2F)cc(C)c1C1C(=O)CC(CC(=O)NCc2ccc(Cl)nc2)C1=O (stereo not drawn) [Compound A116] | – | – | – | – | – | – | – | – | pest or weed control at 250 g/ha [1, 21]: 90%; pest or weed control at 250 g/ha [1, 22]: 80%; pest or weed control at 250 g/ha [2, 23]: 100%; pest or weed control at 250 g/ha [2, 24]: 80%; pest or weed control at 250 g/ha [3, 25]: 100%; pest or weed control at 250 g/ha [3, 26]: 90%; pest or weed control at 250 g/ha [4, 27]: 100%; pest or weed control at 250 g/ha [4, 28]: 100%
5 | C/C=C/c1cc(C)c(C2C(=O)CC(CC(=O)NC(C)C)C2=O)c(CC)c1 (stereo not drawn) [Compound B192] | 100 | 100 | 100 | 100 | 100 | 90 | 100 | 100 | –
6 | CCc1cc(C)cc(C)c1C1C(=O)CC(CC(=O)NCC2CC2)C1=O (stereo not drawn) [Compound B257] | 100 | 100 | 100 | 100 | 100 | 90 | 100 | 100 | –
7 | CCc1cc(OCC(F)(F)F)cc(C)c1C1C(=O)CC(CC(N)=O)C1=O (stereo not drawn) [Compound B167] | 100 | 100 | 90 | 100 | 100 | 90 | 100 | 100 | –
8 | Cc1cc(C)c(C2C(=O)CC(CC(=O)NCc3nc4ccccc4s3)C2=O)c(C)c1 (stereo not drawn) [Compound A100] | – | – | – | – | – | – | – | – | pest or weed control at 250 g/ha [1, 21]: 70%; pest or weed control at 250 g/ha [1, 22]: 90%; pest or weed control at 250 g/ha [2, 23]: 70%; pest or weed control at 250 g/ha [2, 24]: 80%; pest or weed control at 250 g/ha [3, 25]: 0%; pest or weed control at 250 g/ha [3, 26]: 0%; pest or weed control at 250 g/ha [4, 27]: 20%; pest or weed control at 250 g/ha [4, 28]: 20%
9 | COc1ccc(CNC(=O)CC2CC(=O)C(c3c(C)cc(-n4cc(Cl)cn4)cc3C)C2=O)cc1 (stereo not drawn) [Compound B224] | 80 | 80 | 80 | 70 | 80 | 50 | 90 | 70 | –
10 | C=CCNC(=O)CC1CC(=O)C(c2c(C)cc(-c3ncc(F)cn3)cc2C)C1=O (stereo not drawn) [Compound B108] | – | – | – | – | – | – | – | – | pest or weed control at 250 g/ha ([1]; post-emergence, 360 h, 250 g/ha, post-emergence, 15 DAA, visual assessment (100%=total damage, 0%=no damage), read-out: Post-emergence herbicidal activity (percentage phytotoxicity) ALOMY POST): 100%; pest or weed control at 250 g/ha ([1]; pre-emergence, 480 h, 250 g/ha, pre-emergence, 20 DAA, visual assessment (100%=total damage, 0%=no damage), read-out: Pre-emergence herbicidal activity (percentage phytotoxicity) ALOMY PRE): 100%; pest or weed control at 250 g/ha ([2]; post-emergence, 360 h, 250 g/ha, post-emergence, 15 DAA, visual assessment (100%=total damage, 0%=no damage), read-out: Post-emergence herbicidal activity (percentage phytotoxicity) LOLPE POST): 100%; pest or weed control at 250 g/ha ([2]; pre-emergence, 480 h, 250 g/ha, pre-emergence, 20 DAA, visual assessment (100%=total damage, 0%=no damage), read-out: Pre-emergence herbicidal activity (percentage phytotoxicity) LOLPE PRE): 90%; pest or weed control at 250 g/ha ([3]; post-emergence, 360 h, 250 g/ha, post-emergence, 15 DAA, visual assessment (100%=total damage, 0%=no damage), read-out: Post-emergence herbicidal activity (percentage phytotoxicity) AVEFA POST): 100%; pest or weed control at 250 g/ha ([3]; pre-emergence, 480 h, 250 g/ha, pre-emergence, 20 DAA, visual assessment (100%=total damage, 0%=no damage), read-out: Pre-emergence herbicidal activity (percentage phytotoxicity) AVEFA PRE): 90%; pest or weed control at 250 g/ha ([4]; post-emergence, 360 h, 250 g/ha, post-emergence, 15 DAA, visual assessment (100%=total damage, 0%=no damage), read-out: Post-emergence herbicidal activity (percentage phytotoxicity) ECHCG POST): 100%; pest or weed control at 250 g/ha ([4]; pre-emergence, 480 h, 250 g/ha, pre-emergence, 20 DAA, visual assessment (100%=total damage, 0%=no damage), read-out: Pre-emergence herbicidal activity (percentage phytotoxicity) ECHCG PRE): 100%
11 | CCc1cc(C)cc(C)c1C1C(=O)CC(CC(N)=O)C1=O (stereo not drawn) [Compound B171] | 100 | 100 | 90 | 100 | 100 | 100 | 100 | 100 | –
12 | Cc1cc(-c2ncc(Cl)cc2F)cc(C)c1C1C(=O)CC(CC(=O)NC(C)c2ccc(F)cc2)C1=O (stereo not drawn) [Compound A124] | – | – | – | – | – | – | – | – | pest or weed control at 250 g/ha [1, 21]: 90%; pest or weed control at 250 g/ha [1, 22]: 70%; pest or weed control at 250 g/ha [2, 23]: 100%; pest or weed control at 250 g/ha [2, 24]: 90%; pest or weed control at 250 g/ha [3, 25]: 100%; pest or weed control at 250 g/ha [3, 26]: 80%; pest or weed control at 250 g/ha [4, 27]: 100%; pest or weed control at 250 g/ha [4, 28]: 90%
